Laboratory results from US20020026053A1, “Novel 3-(substituted) -2- indolinones compounds and use thereof as inhibitors of protein kinase activity” (priority 1997, published 2002).

Target: T1, Met receptor (EGFR/Met chimeric cells, EMR) (Homo sapiens, UniProt P08581)
T1 construct: expressed in transfected cells; the other entry of the earlier key: EGFR (P00533, Epidermal growth factor receptor)
Test: Met Autophosphorylation Assay
Assay type: biochemical
Method: Met Autophosphorylation Assay
This assay determines Met tyrosine kinase activity by analyzing Met protein tyrosine kinase levels on the Met receptor.
a. HNTG (5× stock solution): Dissolve 23.83 g HEPES and 43.83 g NaCl in about 350 ml dH2O. Adjust pH to 7.2 with HCl or NaOH, add 500 ml glycerol and 10 ml Triton X-100, mix, add dH2O to 1 L total volume. To make 1 L of 1× working solution add 200 ml 5× stock solution to 800 ml dH2O, check and adjust pH as necessary, store at 4° C.
b. PBS (Dulbecco's Phosphate-Buffered Saline), Gibco Cat. # 450-1300EB (1× solution).
c. Blocking Buffer: in 500 ml dH2O place 100 g BSA, 12.1 g Tris-pH7.5, 58.44 g NaCl and 10 ml Tween-20, dilute to 1 L total volume.
d. Kinase Buffer: To 500 ml dH2O add 12.1 g TRIS (pH 7.2), 58.4 g NaCl, 40.7 g MgCl2 and 1.9 g EGTA; bring to 1 L total volume with dH2O.
e. PMSF (Phenylmethylsulfonyl fluoride), Sigma Cat. # P-7626, to 435.5 mg, add 100% ethanol to 25 ml total volume, vortex.
f. ATP (Bacterial Source), Sigma Cat. # A-7699, store powder at −20° C.; to make up solution for use, dissolve 3.31 mg in 1 ml dH2O.
g. RC-20H HRPO Conjugated Anti-Phosphotyrosine, Transduction Laboratories Cat. # E120H.
h. Pierce 1-Step Turbo™ B-ELISA (3,3′,5,5′-tetramethylbenzidine, Pierce Cat. # 34022.
i. H2SO4, add 1 ml conc.(18 N) to 35 ml dH2O.
j. TRIS HCL, Fischer Cat. # BP152-5; to 121.14 g of material, add 600 ml MilliQ H2O, adjust pH to 7.5 (or 7.2) with HCl, bring volume to 1 L with MilliQ H2O.
k. NaCl, Fischer Cat. # S271-10, make up 5M solution.
m. Na3VO4, Fischer Cat. # S454-50, to 1.8 g material add 80 ml MilliQ H2O, adjust pH to 10.0 with HCl or NaOH, boil in microwave, cool, check pH, repeat procedure until pH stable at 10.0, add MilliQ H2O to 100 ml total volume, make 1 ml aliquots and store at −80° C.
n. MgCl2, Fischer Cat. # M33-500, make up 1M solution.
o. HEPES, Fischer Cat. # BP310-500, to 200 ml MilliQ H2O, add 59.6 g material, adjust pH to 7.5, bring volume to 250 ml total, sterile filter.
p. Albumin, Bovine (BSA), Sigma Cat. # A-4503, to 30 grams material add sterile distilled water to make total volume of 300 ml, store at 4° C.
q. TBST Buffer: to approx. 900 ml dH2O in a 1 L graduated cylinder add 6.057 g TRIS and 8.766 g NaCl, when dissolved, adjust pH to 7.2 with HCl, add 1.0 ml Triton X-100 and bring to 1 L total volume with dH2O.
r. Goat Affinity purified antibody Rabbit IgG (whole molecule), Cappel Cat. # 55641.
s. Anti h-Met (C-28) rabbit polyclonal IgG antibody, Santa Cruz Chemical Cat. # SC-161.
t. Transiently Transfected EGFR/Met chimeric cells (EMR) (Komada, et al., Oncogene, 8:2381-2390 (1993).
u. Sodium Carbonate Buffer, ([…], Fischer Cat. # S495) to 10.6 g material add 800 ml MilliQ H2O, when dissolved adjust pH to 9.6 with NaOH, bring up to 1 L total volume with MilliQ H2O, filter, store at 4° C.
All of the following steps are conducted at room temperature unless it is specifically indicated otherwise. All ELISA plate washing is by rinsing 4× with TBST.
This procedure can be performed the night before or immediately prior to the start of receptor capture.
1. Quick thaw lysates in a 37° C. waterbath with a swirling motion until the last crystals disappear.
2. Lyse cell pellet with 1× HNTG containing 1 mM PMSF. Use 3 ml of HNTG per 15 cm dish of cells. Add ½ the calculated HNTG volume, vortex the tube for 1 min., add the remaining amount of HNTG, vortex for another min.
3. Balance tubes, centrifuge at 10,000× g for 10 min at 4° C.
4. Pool supernatants, remove an aliquot for protein determination.
5. Quick freeze pooled sample in dry ice/ethanol bath. This step is performed regardless of whether lysate will be stored overnight or used immediately following protein determination.
6. Perform protein determination using standard bicinchoninic acid (BCA) method (BCA Assay Reagent Kit from Pierce Chemical Cat. # 23225).
1. Coat Corning 96 well ELISA plates with 5 μg per well Goat anti-Rabbit antibody in Carbonate Buffer for a total well volume of 50 μl. Store overnight at 4° C. […]

T1 sequence (P08581 with tags, fused parts or gaps): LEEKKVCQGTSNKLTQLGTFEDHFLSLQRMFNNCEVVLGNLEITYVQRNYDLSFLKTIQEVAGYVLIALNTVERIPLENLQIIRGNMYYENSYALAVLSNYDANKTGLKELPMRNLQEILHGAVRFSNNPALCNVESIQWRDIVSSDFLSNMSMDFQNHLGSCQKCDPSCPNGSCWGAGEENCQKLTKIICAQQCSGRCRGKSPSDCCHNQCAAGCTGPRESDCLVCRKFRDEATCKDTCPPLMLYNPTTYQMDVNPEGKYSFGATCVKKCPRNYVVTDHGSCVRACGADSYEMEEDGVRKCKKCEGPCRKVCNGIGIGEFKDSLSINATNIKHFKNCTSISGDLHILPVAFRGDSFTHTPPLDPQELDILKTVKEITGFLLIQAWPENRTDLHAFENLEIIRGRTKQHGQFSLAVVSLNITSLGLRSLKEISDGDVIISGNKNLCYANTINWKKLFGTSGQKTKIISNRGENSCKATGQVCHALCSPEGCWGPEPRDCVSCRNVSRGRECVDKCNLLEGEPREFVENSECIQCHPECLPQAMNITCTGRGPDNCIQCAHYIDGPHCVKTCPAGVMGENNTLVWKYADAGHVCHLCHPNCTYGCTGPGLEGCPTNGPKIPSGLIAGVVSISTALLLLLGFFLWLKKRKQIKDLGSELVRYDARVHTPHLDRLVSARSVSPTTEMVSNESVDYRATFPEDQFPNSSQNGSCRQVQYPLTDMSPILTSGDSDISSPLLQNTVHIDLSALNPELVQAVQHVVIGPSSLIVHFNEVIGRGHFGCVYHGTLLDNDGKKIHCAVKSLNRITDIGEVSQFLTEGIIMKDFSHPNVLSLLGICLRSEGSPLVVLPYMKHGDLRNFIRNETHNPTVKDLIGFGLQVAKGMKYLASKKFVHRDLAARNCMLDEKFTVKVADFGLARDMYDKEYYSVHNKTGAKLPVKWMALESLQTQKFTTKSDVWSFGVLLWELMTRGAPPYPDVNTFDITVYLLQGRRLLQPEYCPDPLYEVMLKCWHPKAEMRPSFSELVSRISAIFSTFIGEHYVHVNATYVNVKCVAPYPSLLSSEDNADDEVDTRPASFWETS

| SMILES | Met Kinase % Inhibition (P.130) |
| --- | --- |
| CCOC(=O)c1c(C)[nH]c(C=C2C(=O)Nc3c(Br)cc(Br)c(C)c32)c1C [10718/H02] | 31.5% |
| COc1cc(Br)c(O)c(C=C2C(=O)Nc3c(Br)cc(Br)c(C)c32)c1 [10718/H03] | 90.8% |
| Cc1c(Br)cc(Br)c2c1C(=Cc1ccc3ccccc3c1O)C(=O)N2 [10718/H04] | 84.3% |
| CCOC(=O)CCc1c(C(=O)OCC)[nH]c(C=C2C(=O)Nc3c(Br)cc(Br)c(C)c32)c1CC(=O)OCC [10718/H05] | 13.5% |
| CCOC(=O)c1cc(C=C2C(=O)Nc3c(Br)cc(Br)c(C)c32)oc1C [10718/H06] | 32.2% |
| COC(=O)c1[nH]c(C)c(C=C2C(=O)Nc3c(Br)cc(Br)c(C)c32)c1C(=O)OC [10718/H07] | 52.7% |
| Cc1c(Br)cc(Br)c2c1C(=Cc1ccc(Cl)c([N+](=O)[O-])c1)C(=O)N2 [10718/H08] | 14.4% |
| CCOc1cccc(C=C2C(=O)Nc3c(Br)cc(Br)cc32)c1O [10734/A02] | 51.1% |
| O=C1Nc2c(Br)cc(Br)cc2C1=Cc1cc(Cl)cc(Cl)c1O [10734/A03] | 87.8% |
| O=C1Nc2c(Br)cc(Br)cc2C1=Cc1cc(Cl)ccc1O [10734/A04] | 68.0% |
| CCN(CC)c1ccc(C=C2C(=O)Nc3c(Br)cc(Br)cc32)c(O)c1 [10734/A05] | 69.9% |
| O=C1Nc2c(Br)cc(Br)cc2C1=Cc1ccc([N+](=O)[O-])cc1 [10734/A06] | 46.9% |
| O=C1Nc2c(Br)cc(Br)cc2C1=Cc1cc(Br)cc(Br)c1O [10734/A07] | 89.3% |
| O=C1Nc2c(Br)cc(Br)cc2C1=Cc1cccc(F)c1O [10734/A08] | 71.5% |
| O=C1Nc2c(Br)cc(Br)cc2C1=Cc1ccc(O)c(Br)c1 [10734/A09] | 88.4% |
| CC(C)(C)c1ccc(C=C2C(=O)Nc3c(Br)cc(Br)cc32)cc1 [10734/A10] | 55.4% |
| O=C1Nc2c(Br)cc(Br)cc2C1=Cc1ccc(Br)s1 [10734/A11] | 51.9% |
| CCOc1cccc(C=C2C(=O)Nc3ccc(I)cc32)c1O [10734/B02] | 61.9% |
| O=C1Nc2ccc(I)cc2C1=Cc1cc(Cl)cc(Cl)c1O [10734/B03] | 90.1% |
| O=C1Nc2ccc(I)cc2C1=Cc1cc(Cl)ccc1O [10734/B04] | 88.4% |
| CCN(CC)c1ccc(C=C2C(=O)Nc3ccc(I)cc32)c(O)c1 [10734/B05] | 67.8% |
| O=C1Nc2ccc(I)cc2C1=Cc1ccc([N+](=O)[O-])cc1 [10734/B06] | 91.2% |
| O=C1Nc2ccc(I)cc2C1=Cc1cc(Br)cc(Br)c1O [10734/B07] | 93.2% |
| O=C1Nc2ccc(I)cc2C1=Cc1cccc(F)c1O [10734/B08] | 56.1% |

| SMILES | Met Kinase % Inhibition (P.130) |
| --- | --- |
| O=C1Nc2ccc(I)cc2C1=Cc1ccc(O)c(Br)c1 [10734/B09] | 94.3% |
| CC(C)(C)c1ccc(C=C2C(=O)Nc3ccc(I)cc32)cc1 [10734/B10] | 82.6% |
| O=C1Nc2ccc(I)cc2C1=Cc1ccc(Br)s1 [10734/B11] | 83.6% |
| CCOc1cccc(C=C2C(=O)Nc3ccc(Br)c(C)c32)c1O [10734/C02] | 78.6% |
| Cc1c(Br)ccc2c1C(=Cc1cc(Cl)cc(Cl)c1O)C(=O)N2 [10734/C03] | 88.2% |
| Cc1c(Br)ccc2c1C(=Cc1cc(Cl)ccc1O)C(=O)N2 [10734/C04] | 90.7% |
| CCN(CC)c1ccc(C=C2C(=O)Nc3ccc(Br)c(C)c32)c(O)c1 [10734/C05] | 52.7% |
| Cc1c(Br)ccc2c1C(=Cc1ccc([N+](=O)[O-])cc1)C(=O)N2 [10734/C06] | 48.3% |
| Cc1c(Br)ccc2c1C(=Cc1cc(Br)cc(Br)c1O)C(=O)N2 [10734/C07] | 96.8% |
| Cc1c(Br)ccc2c1C(=Cc1cccc(F)c1O)C(=O)N2 [10734/C08] | 93.2% |
| Cc1c(Br)ccc2c1C(=Cc1ccc(O)c(Br)c1)C(=O)N2 [10734/C09] | 88.6% |
| Cc1c(Br)ccc2c1C(=Cc1ccc(C(C)(C)C)cc1)C(=O)N2 [10734/C10] | 11.6% |
| Cc1c(Br)ccc2c1C(=Cc1ccc(Br)s1)C(=O)N2 [10734/C11] | 23.9% |
| CCOc1cccc(C=C2C(=O)Nc3ccc(S(=O)(=O)NC)cc32)c1O [10734/D02] | 46.0% |
| CNS(=O)(=O)c1ccc2c(c1)C(=Cc1cc(Cl)cc(Cl)c1O)C(=O)N2 [10734/D03] | 78.6% |
| CNS(=O)(=O)c1ccc2c(c1)C(=Cc1cc(Cl)ccc1O)C(=O)N2 [10734/D04] | 46.9% |
| CCN(CC)c1ccc(C=C2C(=O)Nc3ccc(S(=O)(=O)NC)cc32)c(O)c1 [10734/D05] | 55.0% |
| CNS(=O)(=O)c1ccc2c(c1)C(=Cc1ccc([N+](=O)[O-])cc1)C(=O)N2 [10734/D06] | 30.6% |
| CNS(=O)(=O)c1ccc2c(c1)C(=Cc1cc(Br)cc(Br)c1O)C(=O)N2 [10734/D07] | 92.0% |
| CNS(=O)(=O)c1ccc2c(c1)C(=Cc1cccc(F)c1O)C(=O)N2 [10734/D08] | 49.8% |
| CNS(=O)(=O)c1ccc2c(c1)C(=Cc1ccc(O)c(Br)c1)C(=O)N2 [10734/D09] | 88.0% |
| CNS(=O)(=O)c1ccc2c(c1)C(=Cc1ccc(C(C)(C)C)cc1)C(=O)N2 [10734/D10] | 20.6% |
| CNS(=O)(=O)c1ccc2c(c1)C(=Cc1ccc(Br)s1)C(=O)N2 [10734/D11] | 33.9% |
| CCOc1cccc(C=C2C(=O)Nc3ccc(S(=O)(=O)Nc4ccc(C(F)(F)F)cc4)cc32)c1O [10734/E02] | 66.9% |
